Experimental data reported in patent US7858644B2, “EP4 receptor antagonists” (Asterand UK Limited, priority 2003, dated 2010).
Structures can show the parent of a compound that is named as a salt.

Tests used:
human EP3 receptor = molecular target: T1, human EP3 receptor (Homo sapiens, UniProt P43115); assay: Binding ability to human EP3 receptor ([3H]PGE2 displacement); conditions: membranes from cells stably transfected with human EP receptor cDNA; [3H]PGE2 2.5 nM; Cheng-Prusoff from IC50; read-out: pKi EP3 (converted)
T1 construct: expressed in transfected cells
T1 sequence (P43115 1-390): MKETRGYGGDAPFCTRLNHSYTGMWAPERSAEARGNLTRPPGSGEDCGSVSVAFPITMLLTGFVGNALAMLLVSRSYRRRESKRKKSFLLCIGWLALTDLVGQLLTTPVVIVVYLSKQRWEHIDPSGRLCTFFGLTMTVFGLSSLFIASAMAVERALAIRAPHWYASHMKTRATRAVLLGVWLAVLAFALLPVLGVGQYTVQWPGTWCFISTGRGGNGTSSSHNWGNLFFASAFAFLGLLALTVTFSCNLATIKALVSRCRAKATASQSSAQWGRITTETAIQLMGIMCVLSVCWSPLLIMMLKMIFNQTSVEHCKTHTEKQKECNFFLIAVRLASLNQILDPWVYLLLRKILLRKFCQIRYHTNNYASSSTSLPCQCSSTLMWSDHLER
Method: (§1) Membranes were prepared from cells stably transfected with human EP receptor cDNA. In brief, cells were cultured to confluency, scraped from culture flasks, and centrifuged (800 g, 8 minutes, 4° C.). Cells were twice washed in ice cold homogenisation buffer containing 10 mMTris-HCl, 1 mM EDTA. 2Na, 250 mM sucrose, 1 mM PMSF, 0.3 mM indomethacin, pH 7.4, homogenised and re-centrifuged as before. The supernatant was stored on ice and pellets re-homogenised and re-spun. Supernatants were pooled and centrifuged at 40000 g, 10 minutes, 4° C. Resultant membrane pellets were stored at −80° C. until use.
(§2) For assay, membranes expressing human EP4, EP3, EP2 or EP1 receptors were incubated in Millipore (MHVBN45) plates containing assay buffer, radiolabelled [^3H]PGE2 and 0.1 to 10 000 nM concentrations of compounds. Incubations were performed at suitable temperatures and for suitable times to allow equilibrium to be reached. Non-specific binding was determined in the presence of 10 uM PGE2. Bound and free radiolabel was separated by vacuum manifold filtration using appropriate wash buffers, and bound radiolabel was determined by scintillation counting. Constituents of each of the buffers are included in table 1 below.
(§3) This approach follows that set out in Kenakin, T. P., Pharmacologic analysis of drug receptor interaction. Raven Press, New York, 2nd edition.

human EP2 receptor = molecular target: T2, human EP2 receptor (Homo sapiens, UniProt P43116); assay: Binding ability to human EP2 receptor ([3H]PGE2 displacement); conditions: read-out: pKi EP2 (converted)
T2 construct: expressed in transfected cells
Method: as §1, §2, §3

T2 sequence (P43116 whole entry): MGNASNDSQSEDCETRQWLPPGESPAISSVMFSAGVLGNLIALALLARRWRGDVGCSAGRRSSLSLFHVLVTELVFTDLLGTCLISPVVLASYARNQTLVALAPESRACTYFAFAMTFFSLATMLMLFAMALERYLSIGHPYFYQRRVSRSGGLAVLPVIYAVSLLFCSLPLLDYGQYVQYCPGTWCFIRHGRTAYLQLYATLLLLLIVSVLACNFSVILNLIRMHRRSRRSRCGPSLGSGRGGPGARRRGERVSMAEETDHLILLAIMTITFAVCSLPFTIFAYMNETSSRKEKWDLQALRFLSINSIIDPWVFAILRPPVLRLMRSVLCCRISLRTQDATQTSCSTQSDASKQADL

Structure (SMILES)	Ki (human EP3 receptor) [µM]	Ki (human EP2 receptor) [µM]
COc1ccc(-c2ccc(OCc3cc(C(=O)NS(=O)(=O)Cc4ccccc4)oc3C)cc2)cc1 [Compound 6, N-[4-(4′-Methoxy-biphenyl-4-yloxymethyl)-5-methyl-furan-2-carbonyl]-C-phenyl-methanesulfonamide]	> 10	> 10
Cc1oc(C(=O)O)cc1COc1ccc(-c2ccc3c(c2)OCO3)cc1 [Compound 28, 4-(4-Benzo[1,3]dioxol-5-yl-phenoxymethyl)-5-methyl-furan-2-carboxylic acid]	> 10	> 10
Cc1oc(C(=O)O)cc1CCOc1ccc(-c2ccccc2)cc1 [Compound 72, 4-[2-(Biphenyl-4-yloxy)-ethyl]-5-methyl-furan-2-carboxylic acid]	> 10	> 10
CC(=O)c1ccc(-c2ccc(OCc3cc(C(=O)NS(=O)(=O)c4ccccc4)oc3C)cc2)cc1 [Compound 22, N-[4-(4′-Acetyl-biphenyl-4-yloxymethyl)-5-methyl-furan-2-carbonyl]-benzenesulfonamide]	> 10	> 10
COc1ccc(-c2ccc(OCc3cc(C(=O)NS(=O)(=O)c4ccc(CN)cc4)oc3C)cc2)cc1 [Compound 12, 4-Aminomethyl-N-[4-(4′-methoxy-biphenyl-4-yloxymethyl)-5-methyl-furan-2-carbonyl]-benzenesulfonamide trifluoroacetate]	> 10	> 10
COc1ccc(-c2ccc(OCc3cc(C(=O)NS(=O)(=O)c4cccs4)oc3C)cc2)cc1 [Compound 10, Thiophene-2-sulfonic acid [4-(4′-methoxy-biphenyl-4-yloxymethyl)-5-methyl-furan-2-carbonyl]-amide]	> 10	> 3.16
COc1ccc(-c2ccc(OCc3cc(C(=O)NS(=O)(=O)c4ccc(C)cn4)oc3C)cc2)cc1 [Compound 11, 5-Methyl-pyridyl-2-sulfonic acid [4-(4′-methoxy-biphenyl-4-yloxymethyl)-5-methyl-furan-2-carbonyl]-amide]	> 10	> 10
Cc1oc(C(=O)O)cc1COc1ccc(-c2ccc(Cl)cc2)cc1 [Compound 27, 4-(4′-Chloro-biphenyl-4-yloxymethyl)-5-methyl-furan-2-carboxylic acid]	> 10	> 3.16
COc1ccc(-c2ccc(OCc3cc(C(=O)NS(=O)(=O)c4ccc(O)cc4)oc3C)cc2)cc1 [Compound 13, 4-Hydroxy-N-[4-(4′-methoxy-biphenyl-4-yloxymethyl)-5-methyl-furan-2-carbonyl]-benzenesulfonamide]	> 10	> 10
Cc1oc(C(=O)NS(=O)(=O)c2ccccc2)cc1COc1ccc(-c2ccccc2)cc1 [Compound 19, N-[4-(Biphenyl-4-yloxymethyl)-5-methyl-furan-2-carbonyl]-benzenesulfonamide]	> 10	> 10
COc1ccc(-c2ccc(OCc3cc(C(=O)O)oc3C)cc2)nc1 [Compound 53, 4-[4-(5-Methoxy-pyridin-2-yl)-phenoxymethyl]-5-methyl-furan-2-carboxylic acid]	> 10	> 10
CC(=O)c1ccc(-c2ccc(OCc3cc(C(=O)O)oc3C)cc2)cc1 [Compound 21, 4-(4′-Acetyl-biphenyl-4-yloxymethyl)-5-methyl-furan-2-carboxylic acid]	> 10	> 10
Cc1oc(C(=O)O)cc1COc1ccc(-c2ccc(C#N)cc2)cc1 [Compound 57, 4-(4′-Cyano-biphenyl-4-yloxymethyl)-5-methyl-furan-2-carboxylic acid]	> 10	> 10
COc1ccc(-c2ccc(OCc3cc(C(=O)O)oc3C)cc2)cc1 [Compound 4, 4-(4′-Methoxy-biphenyl-4-yloxymethyl)-5-methyl-furan-2-carboxylic acid]	> 10	> 10
Cc1oc(CCC(=O)O)cc1COc1ccc(-c2ccccc2)cc1 [Compound 37, 3-[4-(Biphenyl-4-yloxymethyl)-5-methyl-furan-2-yl]-propionic acid]	> 10	> 10
COc1ccc(-c2ccc(OCc3cc(C(=O)NS(=O)(=O)CCCN4CCOCC4)oc3C)cc2)cc1 [Compound 59, 3-Morpholin-4-yl-propane-1-sulphonic acid [4-(4′-methoxy-biphenyl-4-yloxymethyl)-5-methyl-furan-2-carbonyl]-amide]	> 10	> 10

Further lines, results first:

Ki (human EP3 receptor) [µM]	Ki (human EP2 receptor) [µM]	Structure (SMILES)
> 10	> 10	COc1ccc(-c2ccc(OCc3cc(C(=O)NS(=O)(=O)c4ccccc4)oc3C)cc2)nc1 [Compound 132, N-{4-[4-(5-Methoxy-pyridin-2-yl)-phenoxymethyl]-5-methyl-furan-2-carbonyl}-benzenesulphonamide]
> 10	> 10	COc1ccc(-c2ccc(OCc3cc(C(=O)NS(=O)(=O)c4ccccc4)oc3C)cc2)c(C)c1 [Compound 145, N-[4-(4′-Methoxy-2′-methyl-biphenyl-4-yloxymethyl)-5-methyl-furan-2-carbonyl]-benzenesulphonamide]
> 10	> 3.16	Cc1oc(C(=O)NS(=O)(=O)c2ccccc2)cc1COc1ccc(-c2ccc(OC(F)F)cc2)cc1 [Compound 130, N-[4-(4′-Difluoromethoxy-biphenyl-4-yloxymethyl)-5-methyl-furan-2-carbonyl]-benzenesulphonamide]
> 10	> 10	COc1ccc(-c2ccc(OCc3cc(C(=O)NS(=O)(=O)c4ccccc4C)oc3C)cc2)nc1 [Compound 134, N-{4-[4-(5-Methoxy-pyridin-2-yl)-phenoxymethyl]-5-methyl-furan-2-carbonyl}-2-methyl-benzenesulphonamide]
> 10	> 3.16	Cc1noc(C)c1S(=O)(=O)NC(=O)c1cc(COc2ccc(-c3ccc(OC(F)F)cc3)cc2)c(C)o1 [Compound 131, 3,5-Dimethyl-isoxazole-4-sulphonic acid [4-(4′-difluoromethoxy-biphenyl-4-yloxymethyl)-5-methyl-furan-2-carbonyl]-amide]
> 10	> 10	COc1ccc(-c2ccc(OCc3cc(C(=O)O)oc3C)cc2)cc1OC [Compound 96, 4-(3′,4′-Dimethoxy-biphenyl-4-yloxymethyl)-5-methyl-furan-2-carboxylic acid]
> 10	> 10	COc1ccc(-c2ccc(OCc3cc(C(=O)NS(=O)(=O)c4c(C)noc4C)oc3C)cc2)nc1 [Compound 133, 3,5-Dimethyl-isoxazole-4-sulphonic acid {4-[4-(5-methoxy-pyridin-2-yl)-phenoxymethyl]-5-methyl-furan-2-carbonyl}-amide]
> 10	> 10	Cc1oc(C(=O)O)cc1COc1ccc(-c2ccc(CO)cc2)cc1 [Compound 110, 4-(4′-Hydroxymethyl-biphenyl-4-yloxymethyl)-5-methyl-furan-2-carboxylic acid]
> 10	> 10	Cc1oc(C(=O)O)cc1COc1ccc(-c2ccc(OC(F)(F)F)cc2)cc1 [Compound 114, 5-Methyl-4-(4′-trifluoromethoxy-biphenyl-4-yloxymethyl)-furan-2-carboxylic acid]
> 10	> 10	Cc1oc(C(=O)NS(=O)(=O)c2ccccc2)cc1CNc1ccc(-c2ccccc2)cc1 [Compound 161, N-[4-(biphenyl-4-ylaminomethyl)-5-methyl-furan-2-carbonyl]-benzenesulphonamide]
> 10	> 10	CC(C)c1oc(C(=O)O)cc1COc1ccc(-c2ccccc2)cc1 [Compound 85, 4-(Biphenyl-4-yloxymethyl)-5-isopropyl-furan-2-carboxylic acid]
> 10	> 10	COc1ccccc1-c1ccc(OCc2cc(C(=O)NS(=O)(=O)c3ccccc3)oc2C)cc1 [Compound 127, N-[4-(2′-Methoxy-biphenyl-4-yloxymethyl)-5-methyl-furan-2-carbonyl]-benzenesulphonamide]
> 10	> 10	COc1ccc(-c2ccc(OCc3cc(C(=O)NS(=O)(=O)c4c(C)noc4C)oc3C)cc2)c(C)c1 [Compound 146, 3,5-Dimethyl-isoxazole-4-sulphonic acid [4-(4′-methoxy-2′-methyl-biphenyl-4-yloxymethyl)-5-methyl-furan-2-carbonyl]-amide]
> 10	> 10	O=C(O)c1cc(COc2ccc(-c3ccccc3)cc2)co1 [Compound 77, 4-(Biphenyl-4-yloxymethyl)-furan-2-carboxylic acid]
